Assay results: patent US12377042B2, “Botanical and bacterial extracts displaying retinol-like activity” (KENVUE BRANDS LLC, priority 2018, dated 2025)

Legend:
[1] = biological target: T1, Retinoic acid receptor gamma (RARg) (Homo sapiens, UniProt P13631); assay: RARg Transactivation Assay (GeneBLAzer RAR gamma-UAS-bla HEK 293T); assay type: cell-based; conditions: solution in DMSO at different concentrations
T1 construct: the UAS-driven beta-lactamase is the reporter
T1 sequence (P13631 185-419 limits assumed): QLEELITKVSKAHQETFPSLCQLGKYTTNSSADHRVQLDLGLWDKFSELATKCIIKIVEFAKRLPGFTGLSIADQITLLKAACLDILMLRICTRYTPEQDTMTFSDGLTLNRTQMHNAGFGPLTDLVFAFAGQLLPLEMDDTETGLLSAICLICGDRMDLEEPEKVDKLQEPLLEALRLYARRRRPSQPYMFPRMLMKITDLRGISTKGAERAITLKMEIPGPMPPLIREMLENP
Description: Retinoic acid receptor gamma (RARg) agonism was assessed using the Invitrogen GeneBLAzer RAR gamma-UAS-bla HEK 293T cell-based assay, in which activation of RARg results in transcription of beta lactamase. When a FRET probe is added to cells, FRET is observed. However, upon receptor activation and subsequent beta lactamase expression, the probe is cleaved and FRET is no longer observed.
Cells in culture are washed with PBS, trypsinized and resuspended in growth media, counted using ViCell cell counter; the appropriate amount of cells is then spun down and resuspended in assay buffer (at 0.5E6 cells/ml). 15 k cells in 30 ul assay buffer is plated per well in Greiner black walled, clear flat bottom plates using Combi dispenser. The last two columns are filled with assay buffer. […]
After 18-20 h of incubation, 8 ul FRET dye (Invitrogen K1096) is added using Tempest dispenser, after which plates are spun down at 800 rpm for 2 min without brakes and incubated in the dark at room temperature for 2 h. The bottom of the plates is cleaned using anti-static cleaning wipe before measuring fluorescence using BMG Pherastar plate reader (using FRET module, 10 reads, gain for both channels=1000, Ex 409, Em1 460, Em2 530). […]

[2] = tested on: human epidermal skin equivalents; assay: Oleic acid induced hyperkeratinization in human epidermal skin equivalents; assay type: cell-based; conditions: for % Hyperkeratinization (normalized by 10% OA), Average / Stratum Corneum Thickness (% of Total Epidermis), Average: topical
Description: Human epidermal skin equivalents from MatTek Company (Ashland, MA, USA) were used. The skin equivalents were topically treated with 10% oleic acid (OA) either without or with the addition of 1 μM 3-(4-farnesyloxyphenyl)-propionic acid in a proprietary MatTek medium (pheno-red free, hydrocortisone free) for 48 hours. The epidermal skin equivalents were collected at the end of treatment and fixed in 10% neutral buffered formalin solution (Thermo Fisher Scientific, Hudson, NH, USA), dehydrated and embedded in paraffin. Tissue sections (5 μm thick) were cut and were stained with hematoxylin-eosin. Three pictures per section were taken for each skin equivalent. The thickness of the stratum cornea or epidermis was measured using ImagePro Plus (Media Cybernetics Inc., Rockville, MD, USA). The stratum corneum thickness was expressed as % of total epidermis (=thickness of stratum corneum divided by the sum of thicknesses of stratum corneum and epidermis). The % hyperkeratinizatin was normalized by the thickness of 10% OA-treated tissues. Statistical analysis was performed using two-tailed two-sample equal variance Student t test (Microsoft Office Excel 2007; Microsoft, Redmond, WA, USA).

[3] = 1 uM together with 10% oleic acid, 48 hours

| Compound | EC50 [1] [nM] | % Hyperkeratinization (normalized by 10% OA), Average [2, 3] [%] | Stratum Corneum Thickness (% of Total Epidermis), Average [2, 3] [%] | oleic-acid (OA) induced hyperkeratinization (in words) ([2]; 1 uM with 10% oleic acid, 48 hours, p<0.05) | Stratum Corneum Thickness (% of Total Epidermis), Average ([2]; 10% oleic acid alone, 48 hours) [%] | % Hyperkeratinization (normalized by 10% OA), Average ([2]; 10% oleic acid alone, 48 hours (reference)) [%] |
| --- | --- | --- | --- | --- | --- | --- |
| CC(C)=CCCC(C)=CCCC(C)=CCOc1ccc(CCC(=O)O)cc1 [3-(4-farnesyloxyphenyl)-propionic acid] | 594 | 76 | 38 | significantly (p<0.05) reduced |  |  |
| CCCCCCCC/C=C\CCCCCCCC(=O)O [oleic acid, reference compound] |  |  |  |  | 50 | 100 |
